Where a name gives a salt, the structure may show the parent alone. Read-outs that look alike come from different tables or passages of the source.
Assays:
NAMPT = molecular target: T1, NAMPT (Homo sapiens, UniProt P43490); assay: CycLex NAMPT Colorimetric Assay; assay type: biochemical; details: for IC50: CycLex NAMPT Colorimetric Assay Kit, read-out: NAMPT Inhibition IC50
T1 construct: purchased MBL International Corporation (CycLex NAMPT Colorimetric Assay Kit Ver.2)
Description: The ability of the compounds of the disclosure to inhibit NAMPT was determined using the CycLex NAMPT Colorimetric Assay Kit Ver.2 by MBL International Corporation.
The assay detects NAMPT activity in recombinant NAMPT or endogenous NAMPT immunoprecipiated from cell lysates according to the scheme shown in FIG. 3. In this method, NAMPT converts nicotinamide to nicotinamide mononucleotide (“NMN”). Subsequently, nicotinamide mononucleotide adenylyltransferase 1 (“NMNAT1”) converts NMN to NAD^+. Resultant NAD^+ can be measured by enzyme cycling reaction using alcohol dehydrogenase (“ADH”), diaphorase and WST-1.

[1] = test system: human pulmonary artery smooth muscle cells (hPASMCs); assay: BrdU Assay (proliferation), hPASMC; assay type: cell-based
Description: (§1) The effect of the compounds disclosed herein on the viability, proliferation, and apoptosis of human pulmonary artery endothelial cells (“hPAECs,”) and human pulmonary artery smooth muscle cells (“hPASMCs”) was determined using the PrestoBlue Assay (viability), CYQuant Direct or BrdU Assay (proliferation) or Tunel Assay (apoptosis), as described below.
(§2) HPAECs (1×10^4 cells/well) or HPASMCs (2.5×10^3 cells/well) were seeded in 96-well plates for 24 h in full-serum tissue culture medium. The full medium was removed prior to treatment with a NAMPT inhibitor prepared in medium containing 0.1% serum. NAMPT inhibitors were solubilized in 100% DMSO, unless otherwise indicated, prior to preparation of the dose response curve in 100% DMSO. The treatment dose response curve was diluted in 0.1% serum tissue culture medium and administered to cells for 24 h. DMSO diluted in the same medium was used as the vehicle control. Cell viability was measured according to the manufacturer's protocol by adding the PrestoBlue Cell Viability Reagent (ThermoFisher Scientific, #A13261) to cells for 20 min at 37° C. in a tissue culture incubator, followed by reading fluorescence at ex560/em590. Cell proliferation was measured, either in the same wells or in separate experiments, by adding the CyQuant Direct Confirmation Reagent (ThermoFisher Scientific, #C35011) for 1 h at 37° C. in a tissue culture incubator, followed by reading fluorescence at ex485/em538. Proliferation was also measured, in separate experiments, using the BrdU Cell Proliferation Assay (Calbiochem, #QIA58). After treatment with a NAMPT inhibitor for 24 h, BrdU was added to the cells in the presence of the inhibitor, for an additional 24 h and BrdU incorporation was detected according to the manufacturer's protocol. Apoptosis was analyzed by seeding cells (1×10^5 cells/well) in 6-well plates for 24 h in full-serum medium, followed by treatment with a NAMPT inhibitor for 24 h in full-serum medium. Tunel staining and detection was performed using the Tunel Assay Kit (Abcam, #ab66110) according to the manufacturer's protocol.

[2] = test system: human pulmonary artery endothelial cells (hPAECs); assay: BrdU Assay (proliferation), hPAEC; assay type: cell-based; details: for effect on HPAEC proliferation (BrdU assay): dose response, FIG. 6; for IC50: Homo sapiens, Endothelial cell
Description: as §1, §2

[3] = Solubility (2.5% v/v DMSO/water); assay type: physicochemical
[4] = test system: human pulmonary artery endothelial cells (hPAECs); assay: CyQUANT Direct Assay (proliferation), hPAEC; assay type: cell-based; details: for effect on HPAEC proliferation (CYQuant Direct assay): dose response, FIG. 5
Description: as §1, §2

[5] = test system: human pulmonary artery endothelial cells (hPAECs); assay: PrestoBlue Assay (viability), hPAEC; assay type: cell-based; details: for effect on HPAEC viability: dose response, FIG. 4
Description: as §1, §2

T1 sequence (P43490 whole entry): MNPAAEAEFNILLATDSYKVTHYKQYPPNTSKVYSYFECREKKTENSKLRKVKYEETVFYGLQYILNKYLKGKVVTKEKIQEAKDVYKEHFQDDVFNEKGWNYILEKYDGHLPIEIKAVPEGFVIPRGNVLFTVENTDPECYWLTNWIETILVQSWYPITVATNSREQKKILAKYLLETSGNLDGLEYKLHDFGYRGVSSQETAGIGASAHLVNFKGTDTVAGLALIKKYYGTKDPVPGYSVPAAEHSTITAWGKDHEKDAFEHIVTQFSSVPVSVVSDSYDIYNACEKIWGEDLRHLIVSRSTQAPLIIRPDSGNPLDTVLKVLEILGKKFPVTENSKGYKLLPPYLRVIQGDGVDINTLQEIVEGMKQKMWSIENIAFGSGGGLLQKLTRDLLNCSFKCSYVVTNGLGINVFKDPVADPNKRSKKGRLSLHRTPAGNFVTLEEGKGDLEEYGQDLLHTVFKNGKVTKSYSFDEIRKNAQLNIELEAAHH

Row | SMILES | IC50 (NAMPT) [µM] | other results
1 | Cc1cc2ccccc2n1CCCCCCNC(=O)CCc1cccnc1 | 0.97 | –
2 | Cc1ccc2c(ccn2CCCCCCNC(=O)CCc2cccnc2)c1 | 1.53 | –
3 | [2H][C@@H](C(=O)NCCCCCC(=O)N1CCc2cc(O)ccc21)[C@@H]([2H])c1cccnc1 | 0.189 | –
4 | COc1ccc2c(ccn2CCCCCCNC(=O)CCc2cccnc2)c1 | 0.674 | –
5 | O=C(/C=C/c1cccnc1)NCCCCCCn1ccc2cccnc21 | 1.54 | –
6 | O=C(CCc1cccnc1)NCCCCCCn1ccc2cccnc21 | 2.4 | –
7 | CC1Cc2ccccc2N1C(=O)CCCCCNC(=O)/C=C/c1cccnc1 (stereo not shown) | – | IC50 ([1]; Homo sapiens): 51.9 µM; effect on HPAEC proliferation (BrdU assay) [2]: dose-dependently decrease cell proliferation
8 | [2H][C@@H](C(=O)NCCCCCCn1ccc2cc(OCc3ccccc3)ccc21)[C@@H]([2H])c1cccnc1 (relative stereo) [DGMS-RAR-6 D2] | 0.233 | –
9 | O=C(CCc1cccnc1)NCCCCCCn1ccc2ccncc21 [5.2.3b H2] | 2.14 | –
10 | O=C(/C=C/c1cccnc1)NCCCCCCn1ccc2ccncc21 [5.2.3b] | 0.23 | –
11 | [2H][C@@H](C(=O)NCCCCCCn1ccc2cc(OC)ccc21)[C@@H]([2H])c1cccnc1 [5.2.3f D2] | 0.665 | –
12 | COC(=O)Cc1cn(CCCCCCNC(=O)/C=C/c2cccnc2)c2ccccc12 [5.2.3h] | 0.1 | –
13 | O=C(CCc1cccnc1)NCCCCCCn1ccc2cc(O)ccc21 [5.2.3t H2] | 1.2 | –
14 | CC1Cc2ccccc2N1C(=O)CCCCCNC(=O)/C=C/c1cccnc1 (stereo not shown) [DGMS-RAR1] | 0.049 | –
15 | [2H][C@@H](C(=O)NCCCCCC(=O)N1c2ccccc2CC1C)[C@@H]([2H])c1cccnc1 (stereo partly shown) [DGMS-RAR-1 D2] | 0.632 | –
16 | CC1Cc2ccccc2N1C(=O)CCCCCNC(=O)/C=C/c1cccnc1 (stereo not shown) [DGMS-RAR-1•HO3SMe] | 0.034 | –
17 | O=C(/C=C/c1cccnc1)NCCCCCC(=O)N1CCCCc2ccccc21 [DGMS-RAR-3] | 0.072 | –
18 | [2H][C@@H](C(=O)NCCCCCC(=O)N1C[Si](C)(C)c2ccccc21)[C@@H]([2H])c1cccnc1 [DGMS-RAR-4D2] | 2.31 | –

Row | SMILES | IC50 (NAMPT) [µM] | other results
19 | C[Si]1(C)CN(C(=O)CCCCCNC(=O)CCc2cccnc2)c2ccccc21 [DGMS-RAR-4H2] | 1.59 | –
20 | C[Si]1(C)CN(C(=O)CCCCCNC(=O)/C=C/c2cccnc2)c2ccccc21 [DGMS-RAR-4] | 0.141 | –
21 | O=C(CCc1cccnc1)NCCCCCCN1c2ccccc2CCc2ccccc21 [DGMS-RAR-5.2.3c H2] | 0.1 | –
22 | [2H][C@@H](C(=O)NCCCCCC(=O)N1c2ccccc2[Si](CC)(CC)C1C)[C@@H]([2H])c1cccnc1 (stereo partly shown) [DGMS-RAR-5D2] | 0.668 | –
23 | CC[Si]1(CC)c2ccccc2N(C(=O)CCCCCNC(=O)CCc2cccnc2)C1C (stereo not shown) [DGMS-RAR-5H2] | 0.368 | –
24 | CC[Si]1(CC)c2ccccc2N(C(=O)CCCCCNC(=O)/C=C/c2cccnc2)C1C (stereo not shown) [DGMS-RAR-5] | 0.011 | IC50 ([1]; Homo sapiens): 102 µM; effect on HPAEC proliferation (BrdU assay) [2]: dose-dependently decrease cell proliferation
25 | CC[Si]1(CC)c2ccccc2N(C(=O)CCCCCNC(=O)/C=C/c2cccnc2)C1C (stereo not shown) [DGMS-RAR-5•O3SMe] | 0.014 | inhibition at 10 µM (NAMPT): 99%; Solubility (2.5% v/v DMSO/water) [3]: Good
26 | CC[Si]1(CC)c2ccccc2N(C(=O)CCCCCNC(=O)/C=C/c2cccnc2)C1C (stereo not shown) [DGMS-RAR-5•OTs] | 0.0103 | –
27 | O=C(CCc1cccnc1)NCCCCCCn1ccc2cc(OCc3ccccc3)ccc21 [DGMS-RAR-6 H2] | 0.582 | –
28 | O=C(/C=C/c1cccnc1)NCCCCCC(=O)N1c2ccccc2CC1c1ccccc1 (stereo not shown) [DGMS-RAR-7] | 0.041 | effect on HPAEC proliferation (CYQuant Direct assay) [4]: dose-dependently decrease cell proliferation; IC50 ([4]; hPAEC, 24 h treatment): 1 µM; effect on HPAEC viability [5]: dose-dependently decrease cell viability; IC50 ([5]; hPAEC, 24 h treatment): 1.59 µM; IC50 [1]: 35400 µM; IC50 [2]: 95.8 µM; effect on HPAEC proliferation (BrdU assay) [2]: dose-dependently decrease cell proliferation
29 | CCOC(=O)Cc1cn(CCCCCCNC(=O)/C=C/c2cccnc2)c2ccccc12 [DGMS-RAR-PEG2E] | < 0.01 | inhibition at 10 µM (NAMPT): 99%
30 | COCCOCCOCCOCCOC(=O)Cc1cn(CCCCCCNC(=O)/C=C/c2cccnc2)c2ccccc12 [DGMS-RAR-PEG2] | 0.021 | inhibition at 10 µM (NAMPT): 97%; Solubility (2.5% v/v DMSO/water) [3]: Moderate; effect on HPAEC viability [5]: dose-dependently decrease cell viability
31 | O=C(O)CC1CN(C(=O)CCCCCNC(=O)/C=C/c2cccnc2)c2ccccc21 (stereo not shown) [DGMS-RAR-PEG3A] | 1.05 | –
32 | CCOC(=O)CC1CN(C(=O)CCCCCNC(=O)/C=C/c2cccnc2)c2ccccc21 (stereo not shown) [DGMS-RAR-PEG3E] | 0.044 | –
33 | COCCOCCOCCOCCOC(=O)CC1CN(C(=O)CCCCCNC(=O)/C=C/c2cccnc2)c2ccccc21 (stereo not shown) [DGMS-RAR-PEG3] | 0.021 | effect on HPAEC proliferation (CYQuant Direct assay) [4]: dose-dependently decrease cell proliferation; Solubility (2.5% v/v DMSO/water) [3]: Good; effect on HPAEC viability [5]: dose-dependently decrease cell viability
34 | COCCOCCOCCOCCOC(=O)CCC(=O)Oc1ccc2c(ccn2CCCCCCNC(=O)/C=C/c2cccnc2)c1 [DGMS-RAR-mPEG3] | 0.02 | inhibition at 10 µM (NAMPT): 97%; Solubility (2.5% v/v DMSO/water) [3]: good
35 | Cl.O=C(/C=C/c1cccnc1)NCCCCCCn1c(-c2ccccc2)cc2ccccc21 [DGMS-RARI•HCl] | 0.032 | % NAMPT Inhibition at 10 μM (NAMPT): 98%; Solubility (2.5% v/v DMSO/water) [3]: Moderate
36 | O=C(/C=C/c1cccnc1)NCCCCCCn1c(-c2ccccc2)cc2ccccc21 [DGMS-RARI•HO3SMe] | 0.012 | % NAMPT Inhibition at 10 μM (NAMPT): 98%

Now from value to compound, other results behind:

Row | IC50 (NAMPT) [µM] | SMILES | other results
37 | ~10 | O=C(CCc1cccnc1)NCCCCCCn1c(-c2ccccc2)cc2ccccc21 | –
38 | 0.092 | [2H][C@@H](C(=O)NCCCCCCn1c(-c2ccccc2)cc2ccccc21)[C@@H]([2H])c1cccnc1 | –
39 | 0.124 | O=C(/C=C/c1cccnc1)NCCCCCCn1c(-c2ccccc2)cc2cc(O)c(O)cc21 | –
40 | 0.386 | O=C(/C=C/c1cccnc1)NCCCCCCn1c(-c2ccccc2)cc2cc3c(cc21)OCO3 | –
41 | 0.082 | Cc1cc2ccccc2n1CCCCCCNC(=O)/C=C/c1cccnc1 [5.2.3a] | –
42 | 0.071 | O=C(/C=C/c1cccnc1)NCCCCCCN1c2ccccc2CCc2cc(Br)ccc21 [5.2.3d] | –
43 | 0.026 | O=C(/C=C/c1cccnc1)NCCCCCCN1c2ccccc2CC1c1ccccc1 (stereo not shown) [5.2.3e] | –
44 | 0.17 | Cc1ccc2c(ccn2CCCCCCNC(=O)/C=C/c2cccnc2)c1 [5.2.3g] | –
45 | 0.11 | O=C(/C=C/c1cccnc1)NCCCCCCn1ccc2cnccc21 [5.2.3k] | –
46 | 0.155 | O=C(/C=C/c1cccnc1)NCCCCCCn1ccc2cc(I)ccc21 [5.2.3l] | –
47 | 0.047 | CC1Cc2ccccc2N1CCCCCCNC(=O)/C=C/c1cccnc1 (stereo not shown) [DGMS-RAR-1•HCl] | –
48 | 0.08 | O=C(/C=C/c1cccnc1)NCCCCCCN1c2ccccc2CCc2ccccc21 [DGMS-RAR-2] | IC50 ([1]; Homo sapiens): 1.5 µM; IC50 [2]: 1.31 µM; effect on HPAEC proliferation (BrdU assay) [2]: dose-dependently decrease cell proliferation
49 | 1.01 | O=C(/C=C/c1cccnc1)NCCCCCCn1ccc2cc(OCc3ccccc3)ccc21 [DGMS-RAR-6] | –
50 | ~0.1 | O=C(/C=C/c1cccnc1)NCCCCCCn1ccc2cc(OCc3ccccc3)ccc21 [DGMS-RAR-6•HCl] | inhibition at 10 µM (NAMPT): 97%
51 | ~0.1 | O=C(/C=C/c1cccnc1)NCCCCCCn1ccc2cc(OCc3ccccc3)ccc21 [DGMS-RAR-6•HO3SMe] | % NAMPT Inhibition at 10 μM (NAMPT): 97%
52 | 0.04 | O=C(O)Cc1cn(CCCCCCNC(=O)/C=C/c2cccnc2)c2ccccc12 [DGMS-RAR-PEG2A] | inhibition at 10 µM (NAMPT): 98%

From patent publication US11584766B2, “Nicotinamide phosphoribosyltransferase inhibitors and methods for use of the same” (THE TRUSTEES OF INDIANA UNIVERSITY, priority 2018, dated 2023)
